In ChEMBL document CHEMBL1201862, “PubChem BioAssay data set” (2004):
The source made the active and inactive calls.

Key:
Albumin = Albumin (Bos taurus, UniProt P02769); experiment: Counterscreen for inhibitors of T-cell receptor (TCR)-CD3 interaction: Fluorescence-based biochemical high throughput dose response assay to identify inhibitors of T-cell receptor (TCR)-CD3 interaction using a TAMRA-labeled BSA probe.; type: functional
[1] = biological target: Peroxisome proliferator-activated receptor gamma/Nuclear receptor corepressor 2 (Homo sapiens, UniProt P37231+Q9Y618); experiment: Counterscreen for NR2E3 inverse agonists: TR-FRET-based biochemical high throughput dose response assay to identify inverse agonists of the interaction between peroxisome proliferator-activated receptor gamma (PPARg) and nuclear receptor co-repressor 2 (NCOR2).; type: functional
[2] = biological target: Photoreceptor-specific nuclear receptor (Homo sapiens, UniProt Q9Y5X4); experiment: ligands suppressing NR2E3 nuclear receptor activity – biochemical, TR-FRET, dose response (AID 463256); type: functional
[3] = biological target: T1, RNA-editing ligase 1, mitochondrial (Trypanosoma brucei brucei, UniProt P86926); experiment: inhibition of trypanosome RNA editing ligase – biochemical, fluorescence, Trypanosoma brucei, dose response (AID 1117295); type: functional
T1 sequence (P86926 whole entry): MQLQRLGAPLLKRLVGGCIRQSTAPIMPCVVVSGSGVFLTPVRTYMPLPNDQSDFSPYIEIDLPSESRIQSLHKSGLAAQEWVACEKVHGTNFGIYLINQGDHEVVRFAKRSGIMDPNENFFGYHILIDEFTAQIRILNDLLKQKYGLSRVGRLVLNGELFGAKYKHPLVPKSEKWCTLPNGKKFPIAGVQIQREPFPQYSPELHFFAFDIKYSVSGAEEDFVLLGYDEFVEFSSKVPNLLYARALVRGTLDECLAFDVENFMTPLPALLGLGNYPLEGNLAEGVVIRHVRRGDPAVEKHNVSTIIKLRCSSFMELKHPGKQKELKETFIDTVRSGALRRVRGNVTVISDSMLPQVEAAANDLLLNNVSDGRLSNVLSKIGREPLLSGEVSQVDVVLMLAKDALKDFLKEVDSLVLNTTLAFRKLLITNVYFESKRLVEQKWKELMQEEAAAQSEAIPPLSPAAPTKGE

Nonstructural protein 1 = Nonstructural protein 1 (Influenza A virus, UniProt Q194T2); type: functional, Influenza A virus (A/California/07/2009(H1N1))
[4] = biological target: Induced myeloid leukemia cell differentiation protein Mcl-1 (Homo sapiens, UniProt Q07820); type: functional
[5] = biological target: Protein-tyrosine kinase 2-beta (Homo sapiens, UniProt Q14289);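 also: potency of inhibitors of PYK2 kinase phosphorylation of poly-GT substrate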
Major prion protein = Major prion protein (Homo sapiens, UniProt P04156); type: functional, cell-based
[6] = inhibition of ADAM10 peptide cleavage – biochemical, FRET peptide substrate, recombinant human ADAM10, selectivity assay for ADAM17 exosite inhibitor project, dose response (AID 743259);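 also: ADAM10 enzyme cleaving a FRET peptide substrate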
[7] = biological target: Disintegrin and metalloproteinase domain-containing protein 17 (Homo sapiens, UniProt P78536); experiment: exosite inhibitors of ADAM17, dose response, biochemical (AID 743260)
Kallikrein-7 = Kallikrein-7 (Homo sapiens, UniProt P49862); experiment: Fluorescence Intensity-based biochemical primary high throughput dose response assay to identify activators of kallikrein-7 (K7) zymogen.
[8] = alpha-synuclein stem-loop luciferase translation blockers – H4 neuroglioma cells, luminescence, confirmation (AID 1988); type: functional, cell-based
[9] = Luminescence Cell-Based Dose Response HTS to Identify Inhibitors of 5'UTR Stem-Loop Driven Prion Protein mRNA Translation in H4 Neuroglioblastoma Cells. [Related pubchem assays: 1827 (Project Summary), 1813 (Primary HTS)]; type: functional
[10] = luciferase reporter signal suppression in cells – H4 neuroglioma cells, luminescence, dose response (AID 1990); type: functional, cell-based
[11] = biological target: NAD-dependent protein deacylase sirtuin-5, mitochondrial (Homo sapiens, UniProt Q9NXA8); experiment: sirtuin-5 deacylation blockers, concentration series – biochemical, fluorescence imaging, cherry-pick, set 5, dose response (AID 720591);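 also: desuccinylation of succinyl peptide AMC substrate read as fluorescence after trypsin release; potency of inhibitors that lower fluorescence and may act on trypsin instead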
Fatty acid synthase [12] = biological target: T2, Fatty acid synthase (Homo sapiens, UniProt P49327); experiment: inhibition of human FAS-TE enzyme activity – biochemical, kinetic fluorescence intensity, dose response (AID 624326); type: functional;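 also: rate of fluorescence rise from hydrolysis of a fluorogenic O-methyl fluorescein ester substrate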
Fatty acid synthase [13] = biological target: T2, Fatty acid synthase; experiment: inhibition of human FAS-TE enzyme activity – biochemical, endpoint fluorescence intensity, uHTS hits, dose response (AID 624327); type: functional;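 also: fluorescence from hydrolysis of an O-methyl fluorescein acyl ester substrate by the enzyme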
Prothrombin = Prothrombin (Homo sapiens, UniProt P00734); experiment: Thrombin 1536 HTS Dose Response Confirmation. [Related pubchem assays: 1046 (Thrombin 1536 HTS; hits were confirmed in this assay)]; type: functional
[14] = biological target: Peroxisome proliferator-activated receptor gamma/Nuclear receptor coactivator 2 (Homo sapiens, UniProt P37231); experiment: (§1) TR-FRET dose response biochemical High Throughput Screening assay for agonists of the steroid receptor coactivator 2 (SRC-2) recruitment by the peroxisome proliferator-activated receptor gamma (PPAR gamma): non-selective agonists. [Related pubchem assays: 1297, 1032 ]; type: functional
[15] = biological target: Peroxisome proliferator-activated receptor gamma/Nuclear receptor coactivator 3 (Homo sapiens, UniProt P37231); experiment: as §1, with “3 (SRC-3)” for “2 (SRC-2)”, “1301 (Confirmation screen.), 1048 (Primary screen.)]” for “1297, 1032 ]”; type: functional
[16] = reduced cellular PGC1a acetyl-lysine signal – cell-based, cherry-picked samples, dose response (AID 720514); type: functional;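 also: potency may reflect raised or lowered acetylation signal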
[17] = IGROV1 cell killing – plate reader, dry powder samples, PAX8 inhibitor project, dose response (AID 743043); type: functional, cell-based; settings: IGROV-1
[18] = OVCAR8 cell viability loss – plate reader, dry powder samples, PAX8 project, dose response (AID 743197); type: functional, cell-based; settings: OVCAR-8
Paired box protein Pax-8 = Paired box protein Pax-8 (Homo sapiens, UniProt Q06710); experiment: PAX8 transcriptional activity inhibition in RMG-I – RMG-I cells, luciferase, cherry-pick, dose response (AID 687027); type: functional, cell-based;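 also: luciferase reporter driven by Pax8 target thyroperoxidase promoter measured by SteadyGlo luminescence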
[19] = OVCAR-3 cell viability loss – plate reader, dry powder samples, PAX8 inhibitor project, dose response (AID 743044); type: functional, cell-based
[20] = T. cruzi growth inhibition in host cells, dose response, cell-based, plate reader, dry powder, set 2 (AID 652275); type: functional
[21] = P. falciparum Dd2 growth inhibitors, dose response, SYBR Green, cherry-picked samples (AID 1159567); type: functional, cell-based
[22] = Dd2 malaria parasite growth inhibition potency – SYBR Green, dry powder samples, dose response (AID 1159566); type: functional, cell-based;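 also: potency for growth inhibition with lower SYBR green DNA signal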
[23] = growth inhibition of yeast DHODH-expressing 3D7 parasites – SYBR Green, dry powder samples, dose response (AID 1159570); type: functional, cell-based;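 also: parasite growth measured after 72 hours of compound exposure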
[24] = growth inhibition of PfATP4-mutant resistant parasites – NITD609-resistant line, SYBR Green, dry powder, dose response (AID 1159571); type: functional, cell-based;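 also: parasites synchronized at ring stage by sorbitol before testing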
[25] = toxicity to human HepG2 hepatoma cells – cell-based, plate reader, dry powder samples, cytotoxicity control, dose response (AID 1159569); type: functional;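 also: inhibitor potency with signal falling toward the positive control level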
[26] = toxicity to human hepatoma HepG2 cells – cell-based, cherry-picked samples, cytotoxicity control, dose response (AID 1159577); type: functional

For `O=C(CSc1nc2ccccc2c(=O)n1-c1ccc(F)c(Cl)c1)Nc1cccc(S(=O)(=O)N2CCOCC2)c1`, the IC50 (Albumin) was > 94.2 µM (inactive).
For `Cc1csc(NC(=O)COc2ccc3c(C)cc(=O)oc3c2)n1`, the IC50 [1] was > 39.8 µM (not active) and the IC50 [2] was 7.06 µM (active).
In the case of `Cc1n[nH]c(=S)n(NC(=O)/C=C/C(=O)Nn2c(=S)[nH]nc(C)c2=O)c1=O`, the IC50 [3] is reported as 63.6 µM (inactive), the IC50 (Nonstructural protein 1) is reported as 7.29 µM (active) and the IC50 [4] is reported as 4.67 µM (active).
For `CCOC(=O)CSc1nc(C(C)C)nc2ccccc12`, the IC50 [5] was > 69.5 µM (not active), the IC50 (cells) was > 138 µM (inactive) and the IC50 (Major prion protein) was 1.08 µM (active).
For `COc1ccc(OC)c(NC(=O)COC(=O)Cc2ccc(-c3ccccc3)cc2)c1`, the IC50 [6] was > 69.5 µM (inactive) and the IC50 [7] was > 69.5 µM (inactive).
With `Cc1cc(C)c2c(n1)nn1c(NCCN3CCOCC3)cc(C)nc21` the EC50 (Kallikrein-7) was 34.8 µM (inactive).
With `COc1ccc(C2C3=C(O)CC(C)(C)CC3=NC(C)=C2C(=O)N2CCOCC2)c(OC)c1` (centres undefined) the EC50 (Kallikrein-7) was 52.4 µM (inactive).
With `CCOC(=O)c1c(-c2ccccc2)csc1NC(=O)CSc1nncs1` the EC50 [8] was 30.6 µM (active), the IC50 [6] was > 69.5 µM (inactive) and the EC50 [9] was > 120 µM (not active). For the same compound, the IC50 [7] was > 69.5 µM (inactive) and the EC50 [10] was 15.8 µM (active).
For `COc1cccc(-c2cc(C(=O)Nc3cc(C)on3)no2)c1`, the IC50 [1] was > 39.8 µM (not active) and the IC50 [2] was > 39.8 µM (not active).
For `Cc1cccc(NC(=O)N2CCCC(CNC(=O)c3ccccc3Cl)C2)c1C` (centres undefined), the AC50 [11] was > 30 µM (inactive).
In the case of `O=C(CN1C(=O)NC2(CCCc3ccccc32)C1=O)NCC(F)(F)F` (centres undefined), the IC50 [1] is reported as 7.85 µM (active) and the IC50 [2] is reported as 8.55 µM (active).
In the case of `CCn1cc(C(=O)NCc2ccco2)c(=O)c2cc(S(=O)(=O)N3CCCCCC3)ccc21`, the IC50 (Fatty acid synthase [12]) is reported as 2.32 µM (active), the IC50 (Fatty acid synthase [13]) is reported as 2.96 µM (active) and the IC50 (Prothrombin) is reported as 14.7 µM (active).
With `O=C(Oc1ccc(Oc2ccccc2)cc1)N1CCC(O)CC1` the AC50 [11] was > 30 µM (inactive).
For `N#CC1=C2SCN(Cc3ccccc3)CN2C(=O)CC1c1cccs1` (centres undefined), the EC50 [14] was > 79.4 µM (not active), the EC50 [15] was > 79.4 µM (not active) and the IC50 (cells) was > 138 µM (inactive). For the same compound, the IC50 (Major prion protein) was > 138 µM (inactive).
In the case of `CC(C)OC(=O)CSc1nc(Cc2ccccc2)nc2ccccc12`, the IC50 (cells) is reported as > 138 µM (inactive) and the IC50 (Major prion protein) is reported as 4.45 µM (active).
In the case of `CC1CCCN(CC(=O)N2CCCc3ccccc32)C1.[O-][Cl+3]([O-])([O-])O` (centres undefined), the AC50 [16] is reported as 27.1 µM (active).
In the case of `Cc1ccc(CN2C(=O)[C@H]3Cc4c([nH]c5ccccc45)C(C)(C)N3C2=O)cc1`, the IC50 [6] is reported as > 69.5 µM (inactive) and the IC50 [7] is reported as > 69.5 µM (inactive).
In the case of `Cc1cc(NC(=O)CSc2nnc3ccc(-c4ccccc4)nn23)no1`, the AC50 [11] is reported as > 30 µM (inactive).
With `C[C@H]1CCCCO[C@H](CN(C)Cc2ccc(C(F)(F)F)cc2)[C@@H](C)CN([C@@H](C)CO)C(=O)c2cc(NS(=O)(=O)c3ccc(Cl)cc3)ccc2O1` the AC50 [17] was 36 µM (active), the AC50 [18] was > 70 µM (inactive) and the AC50 (Paired box protein Pax-8) was 4.73 µM (active).
In the case of `C[C@@H]1CCCCO[C@H](CN(C)Cc2ccc(C(F)(F)F)cc2)[C@@H](C)CN([C@@H](C)CO)C(=O)c2cc(NS(=O)(=O)c3ccc(F)cc3)ccc2O1`, the AC50 [17] is reported as 31 µM (active), the AC50 [19] is reported as 21.5 µM (active) and the AC50 [18] is reported as 29.7 µM (active). The AC50 (Paired box protein Pax-8) was 8.57 µM (active).
For `C[C@@H]1CN([C@H](C)CO)C(=O)c2cc(NC(=O)Nc3ccc(F)cc3)ccc2O[C@@H](C)CCCCO[C@H]1CN(C)C(=O)NC1CCCCC1`, the AC50 [19] was 43.1 µM (active) and the AC50 (Paired box protein Pax-8) was 6.55 µM (active).
For `CCC(=O)N1CC[C@@H]2[C@H]1c1cc(Br)ccc1N(C)[C@@H]2CO`, the AC50 [20] was 11.7 µM (active).
With `CC(C)N1C[C@@H](CN(C)Cc2ccc(Cl)cc2)Oc2c(C(=O)Nc3ccnnc3)cccc2C1=O` the AC50 [20] was 0.299 µM (active).
In the case of `CC(C)N1CC2(CN(Cc3ccc(F)c(F)c3)C2)Oc2c(NC(=O)c3ccncc3)cccc2C1=O`, the AC50 [20] is reported as 1.05 µM (active).
With `CC(=N)/C(C#N)=C(/O)CSc1nc2cc(Cl)ccc2s1` the IC50 (Prothrombin) was > 50 µM (not active).
For `COC(=O)C1=C(C)N(Cc2ccc(C(F)(F)F)cc2)C(NCc2ccccc2C(F)(F)F)=NC1c1ccc(Cl)cc1` (centres undefined), the IC50 [3] was > 96.6 µM (inactive).
With `COC(=O)C1=C(C)N(Cc2cccc(C(F)(F)F)c2)C(NCc2ccccc2C(F)(F)F)=NC1c1cccc(F)c1` (centres undefined) the IC50 [3] was > 96.6 µM (inactive).
For `CCCc1cn(CC[C@@H]2CC[C@@H](NS(=O)(=O)c3ccc(-c4ccccc4)cc3)[C@H](CO)O2)nn1`, the AC50 [21] was 1.7 µM (active), the AC50 [22] was 1.99 µM (active) and the AC50 [23] was 2.17 µM (active). For the same compound, the AC50 [24] was 1.82 µM (active), the AC50 [25] was 37.5 µM (active) and the AC50 [26] was 23.3 µM (active).
For `C(=C\c1ccc([C@H]2[C@@H]3CN(Cc4cccnc4)C[C@H]2N3)cc1)/c1ccccc1`, the AC50 [21] was 2.81 µM (active), the AC50 [22] was 3.79 µM (active) and the AC50 [23] was 4.3 µM (active). For the same compound, the AC50 [24] was 3.95 µM (active), the AC50 [25] was 18.6 µM (active) and the AC50 [26] was 27.5 µM (active).
In the case of `OC[C@@H]1CC[C@@H]2O[C@H](CCc3ccc(C#CCc4ccccc4)cc3)[C@H](n3cc(-c4ccccc4)nn3)C[C@@H]2O1`, the AC50 [21] is reported as 1.45 µM (active), the AC50 [22] is reported as 0.879 µM (active) and the AC50 [23] is reported as 1.79 µM (active). For the same compound, the AC50 [24] was 1.53 µM (active) and the AC50 [25] was > 100 µM (inactive).
